Test results reported in patent EP0835871B1, “Benzo [b] thiophene compounds, intermediates, formulations, and methods” (ELI LILLY AND COMPANY, priority 1996, dated 1998).

Experiments:
[1] = tested on: female Sprague Dawley rats; experiment: Uterine wet weight in the post-menopausal (ovariectomized rat) model, 4 days of oral dosing; type: in vivo; conditions: % increase versus the ovariectomized controls, * p<0.05
Procedure: (§1) In the examples illustrating the methods, a post-menopausal model was used in which effects of different treatments upon circulating lipids were determined.
(§2) Seventy-five day old female Sprague Dawley rats (weight range of 200 to 225g) are obtained from Charles River Laboratories (Portage, MI). The animals are either bilaterally ovariectomized (OVX) or exposed to a Sham surgical procedure at Charles River Laboratories, and then shipped after one week. Upon arrival, they are housed in metal hanging cages in groups of 3 or 4 per cage and have ad libitum access to food (calcium content approximately 0.5%) and water for one week. Room temperature is maintained at 22.2° ± 1.7° C with a minimum relative humidity of 40%. The photoperiod in the room is 12 hours light and 12 hours dark.
(§3) Dosing Regimen Tissue Collection. After a one week acclimation period (therefore, two weeks post-OVX) daily dosing with test compound is initiated. 17α-ethynyl estradiol or the test compound are given orally, unless otherwise stated, as a suspension in 1% carboxymethylcellulose or dissolved in 20% cyclodextrin. Animals are dosed daily for 4 days. Following the dosing regimen, animals are weighed and anesthetized with a ketamine: Xylazine (2:1, V:V) mixture and a blood sample is collected by cardiac puncture. The animals are then sacrificed by asphyxiation with CO2, the uterus is removed through a midline incision, and a wet uterine weight is determined.

[2] = tested on: Uterine Eosinophil Peroxidase (EPO); experiment: Uterine Eosinophil Peroxidase (EPO) Assay in ovariectomized rats; type: in vivo; design: unit not given here; conditions: Vmaximum, * p<0.05
Source text: as §2, §3
Uterine Eosinophil Peroxidase (EPO) Assay. Uteri are kept at 4° C until time of enzymatic analysis. The uteri are then homogenized in 50 volumes of 50 mM Tris buffer (pH - 8.0) containing 0.005% Triton X-100. Upon addition of 0.01% hydrogen peroxide and 10 mM o-phenylenediamine (final concentrations) in Tris buffer, increase in absorbance is monitored for one minute at 450 nm. The presence of eosonophils in the uterus is an indication of estrogenic activity of a compound. The maximal velocity of a 15 second interval is determined over the initial, linear portion of the reaction curve.

Serum cholesterol = Serum cholesterol analysis in ovariectomized rats; type: in vivo; conditions: decrease versus ovariectomized controls, * p<0.05
Procedure: as §1, §2, §3
Cholesterol Analysis. Blood samples are allowed to clot at ambient temperature for 2 hours, and serum is obtained following centrifugation for 10 minutes at 3000 rpm. Serum cholesterol is determined using a Boehringer Mannheim Diagnostics high performance cholesterol assay. Briefly, the cholesterol is oxidized to cholest-4-en-3-one and hydrogen peroxide. The hydrogen peroxide is then reacted with phenol and 4-aminophenazone in the presence of peroxidase to produce a p-quinone imine dye, which is read spectrophotemetrically at 500 nm. Cholesterol concentration is then calculated against a standard curve.

[3] = tested on: MCF-7 breast adenocarcinoma cells (ATCC HTB 22); experiment: MCF-7 Proliferation Assay (tritiated thymidine uptake); type: cell-based; conditions: MCF-7 cells, 48 hours with drug, tritiated thymidine pulse 4 hours
Procedure: MCF-7 Proliferation Assay
MCF-7 breast adenocarcinoma cells (ATCC HTB 22) were maintained in MEM (minimal essential medium, phenol red-free, Sigma, St. Louis, MO) supplemented with 10% fetal bovine serum (FBS) (V/V), L-glutamine (2 mM), sodium pyruvate (1 mM), HEPES {(N-[2-hydroxyethyl]piperazine-N'-[2-ethanesulfonic acid] 10 mM}, non-essential amino acids and bovine insulin (1 ug/mL) (maintenance medium). Ten days prior to assay, MCF-7 cells were switched to maintenance medium supplemented with 10% dextran coated charcoal stripped fetal bovine serum (DCC-FBS) assay medium) in place of 10% FBS to deplete internal stores of steroids. MCF-7 cells were removed from maintenance flasks using cell dissociation medium [Ca++/Mg++ free HBSS (phenol red-free) supplemented with 10 mM HEPES and 2 mM EDTA]. Cells were washed twice with assay medium and adjusted to 80,000 cells/mL. Approximately […] (8,000 cells) were added to flat-bottom microculture wells (Costar 3596) and incubated at 37° C in a 5% CO2 humidified incubator for 48 hours to allow for cell adherence and equilibration after transfer. Serial dilutions of drugs or DMSO as a diluent control were prepared in assay medium and […] to triplicate microcultures followed by […] assay medium for a final volume of […]. After an additional 48 hours at 37° C in a 5% CO2 humidified incubator, microcultures were pulsed with tritiated thymidine (1 µCi/well) for 4 hours. Cultures were terminated by freezing at -70° C for 24 hours followed by thawing and harvesting of microcultures using a Skatron Semiautomatic Cell Harvester. Samples were counted by liquid scintillation using a Wallac BetaPlace β counter. The compounds of formula I are active and potent in inhibiting the tumor cell growth, see: Table 2.

SMILES | Uterine Wt. (% Inc.) ([1]; dose printed as 0. mg/kg PO) | Uterine EPO (Vmax) ([2]; dose printed as 0. mg/kg PO) | Serum Cholesterol (% Dec.) (Serum cholesterol; dose printed as 0. mg/kg PO) | Uterine Wt. (% Inc.) ([1]; 0.1 mg/kg PO) | Uterine Wt. (% Inc.) ([1]; 1 mg/kg PO) | Uterine Wt. (% Inc.) ([1]; 10 mg/kg PO) | Uterine EPO (Vmax) ([2]; 0.1 mg/kg PO) | Uterine EPO (Vmax) ([2]; 1 mg/kg PO) | Uterine EPO (Vmax) ([2]; 10 mg/kg PO) | IC50 ([3]; Homo sapiens, MCF7) | Serum Cholesterol (% Dec.) (Serum cholesterol; 0.1 mg/kg PO) | Serum Cholesterol (% Dec.) (Serum cholesterol; 1 mg/kg PO) | Serum Cholesterol (% Dec.) (Serum cholesterol; 10 mg/kg PO) | IC50 [3]
C#C[C@]1(O)CC[C@H]2[C@@H]3CCc4cc(O)ccc4[C@H]3CC[C@@]21C [EE2, 17-α-Ethynyl-estradiol, reference compound] | 171.2* % | 142.4* | 85.1* % |  |  |  |  |  |  |  |  |  |  | 
CC(=O)c1ccc2c(C(=O)c3ccc(OCCN4CCCCC4)cc3)c(-c3ccc(O)cc3)sc2c1 [Example 5, [2-(4-Hydroxyphenyl)-6-acetylbenzo[b]thien-3-yl][4-[2-(1-piperidinyl)ethoxy]phenyl]methanone] |  |  |  | 18.8% | 51.8* % | 69.4* % | 1.2 | 2.1 | 5.4 | 60 nM | -6.3% | 20.4% | 45.4* % | 
Cl.O=C(O)c1ccc2c(C(=O)c3ccc(OCCN4CCCCC4)cc3)c(-c3ccc(O)cc3)sc2c1 [Example 4, [2-(4-Hydroxyphenyl)-6-carboxybenzo[b]thien-3-yl][4-[2-(1-piperidinyl)ethoxy]phenyl]methanone Hydrochloride] |  |  |  | 18.8% | 27.2% | 29.6* % | 3.3 | 3.0 | 3.6 |  | 0.6% | 10.4% | 44.9* % | 
CCCCOC(=O)c1ccc2c(C(=O)c3ccc(OCCN4CCCCC4)cc3)c(-c3ccc(O)cc3)sc2c1 [Example 2, [2-(4-Hydroxyphenyl)-6-n-butoxycarbonylbenzo[b]thien-3-yl][4-[2-(1-piperidinyl)ethoxy]phenyl]methanone] |  |  |  | 19.4% | 16.8% | 52.5* % | 2.4 | 0.0 | 4.8 | 45 nM | -1.2% | 26.7% | 55.6* % | 
CC(C)COC(=O)c1ccc2c(C(=O)c3ccc(OCCN4CCCCC4)cc3)c(-c3ccc(O)cc3)sc2c1 [Example 3] |  |  |  | 11.8% | 21.7% | 47.1* % | 3.3 | 3.3 | 4.8 |  | -2.4% | 8.7% | 58.0* % | 45 nM
C#Cc1ccc2c(C(=O)c3ccc(OCCN4CCCCC4)cc3)c(-c3ccc(O)cc3)sc2c1 [Example 6, [2-(4-Hydroxyphenyl)-6-ethynylbenzo[b]thien-3-yl][4-[2-(1-piperidinyl)ethoxy]phenyl]methanone] |  |  |  | 14.3% | 27.8% | 22.5% | 3.9 | 4.8 | 4.8 | 20 nM | 39.4* % | 58.7* % | 65.8* % | 
COC(=O)c1ccc2c(C(=O)c3ccc(OCCN4CCCCC4)cc3)c(-c3ccc(O)cc3)sc2c1.Cl [Example 1, [2-(4-Hydroxyphenyl)-6-methoxycarbonylbenzo[b]thien-3-yl][4-[2-(1-piperidinyl)ethoxy]phenyl]methanone Hydrochloride] |  |  |  | 46.9* % | 19.1% | 45.2* % | 4.5 | 4.8 | 7.5 | 40 nM | -8.6% | 42.5* % | 56.1* % | 
